Inhibition data for one molecule are collected here from patent publication US20230372427A1, “THE COMPOSITIONS OF PLANT INGREDIENTS AND HERBS AGAINST CORONAVIRUS” (priority 2022, published 2023).

For the experiment, the system named is wild-type SARS-CoV-2 pseudotyped lentivirus (WT-GFP-SARS-CoV-2-pseudotyped lentivirus). The experiment in a line: microbe, parasite or virus in culture. It is filed as cell-based. The following applies: HEK-293T, 72 h, read-out: inhibitory effect (viral entry), positive control.

As to `CCN(CC)CCCC(C)Nc1ccnc2cc(Cl)ccc12` (stereo not shown) [chloroquine, Chloroquine], the inhibition at 0.5 µg/mL was about 70%.
